Results taken from ChEMBL document CHEMBL1138677, “Design, synthesis, and biological evaluation of new cyclic disulfide decapeptides that inhibit the binding of AP-1 to DNA” (J Med Chem, 2004).
Residues, ends and D or L forms follow the SMILES beside them.

Experiments:
Transcription factor AP1 = Transcription factor AP1 (Homo sapiens, UniProt P01100+P05412); assay: Inhibitory activity against transcription activator protein-1 (AP-1); type: protein-complex assay
[1] = target: Transcription factor AP1 (Homo sapiens) (UniProt P05412+P01100); assay: Percent inhibition of transcription activator protein-1 (AP-1) in DNA binding assay at 100 uM; type: protein-complex assay

Chain of Transcription factor AP1 (P05412 whole entry): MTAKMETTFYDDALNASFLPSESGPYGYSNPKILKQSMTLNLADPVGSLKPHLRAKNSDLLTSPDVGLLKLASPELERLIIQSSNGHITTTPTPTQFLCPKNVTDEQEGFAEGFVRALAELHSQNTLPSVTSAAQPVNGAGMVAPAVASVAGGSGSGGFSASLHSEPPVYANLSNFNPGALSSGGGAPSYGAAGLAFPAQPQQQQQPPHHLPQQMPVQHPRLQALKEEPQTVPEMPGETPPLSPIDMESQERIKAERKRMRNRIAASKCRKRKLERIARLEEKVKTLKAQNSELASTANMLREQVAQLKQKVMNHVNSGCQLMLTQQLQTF
Chain of Transcription factor AP1 (P01100 whole entry): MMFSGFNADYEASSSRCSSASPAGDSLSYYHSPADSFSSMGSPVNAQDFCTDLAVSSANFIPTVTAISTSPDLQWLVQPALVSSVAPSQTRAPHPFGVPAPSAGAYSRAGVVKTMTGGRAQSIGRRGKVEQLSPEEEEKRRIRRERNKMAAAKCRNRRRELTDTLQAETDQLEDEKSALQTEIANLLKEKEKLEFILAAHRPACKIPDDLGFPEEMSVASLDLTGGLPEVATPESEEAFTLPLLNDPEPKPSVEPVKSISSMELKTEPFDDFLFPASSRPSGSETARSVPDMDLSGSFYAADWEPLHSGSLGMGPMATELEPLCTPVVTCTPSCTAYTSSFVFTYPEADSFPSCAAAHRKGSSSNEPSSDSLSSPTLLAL

Structure (SMILES)	IC50 (Transcription factor AP1) [µM]	inhibition [1] [%]
CC(C)C[C@H](NC(=O)[C@H](C)NC(=O)[C@H](CC(C)C)NC(=O)[C@H](CCC(N)=O)NC(=O)CN)C(=O)N[C@@H](C)C(=O)N[C@@H](CC(=O)O)C(=O)NCC(=O)O (H-GQLALADG-OH)	> 200	-1
CC(C)C[C@H](NC(=O)[C@H](CCC(N)=O)NC(=O)CN)C(=O)N[C@@H](CC(=O)O)C(=O)N[C@@H](C)C(=O)N[C@@H](C)C(=O)N[C@@H](CC(=O)O)C(=O)NCC(=O)O (H-GQLDAADG-OH)	> 100	7
CC(C)C[C@H](NC(=O)[C@H](CC(=O)O)NC(=O)[C@H](CC1CCCCC1)NC(=O)[C@H](CCC(N)=O)NC(=O)CN)C(=O)N[C@@H](C)C(=O)N[C@@H](CC(=O)O)C(=O)NCC(=O)O (HELM PEPTIDE1{G.Q.[Cha].D.L.A.D.G}$$$$V2.0)	> 100	–
CC(C)C[C@H](NC(=O)[C@H](CC(=O)O)NC(=O)[C@H](CC(C)C)NC(=O)[C@H](CCC(=O)O)NC(=O)CN)C(=O)N[C@@H](C)C(=O)N[C@@H](CC(=O)O)C(=O)NCC(=O)O (H-GELDLADG-OH)	> 200	-2
CC(C)C[C@H](NC(=O)[C@H](CC(=O)O)NC(=O)[C@H](CC(C)C)NC(=O)[C@H](CCC(N)=O)NC(=O)CN)C(=O)NCC(=O)N[C@@H](CC(=O)O)C(=O)NCC(=O)O (H-GQLDLGDG-OH)	> 200	1
CC(C)C[C@H](NC(=O)[C@H](CC(=O)O)NC(=O)[C@H](CC(C)C)NC(=O)[C@H](CCC(N)=O)NC(=O)CN)C(=O)N[C@@H](C)C(=O)N[C@@H](CC(=O)O)C(=O)O (H-GQLDLAD-OH)	> 100	11
CC(C)C[C@H](NC(=O)[C@H](CC(=O)O)NC(=O)[C@H](CC(C)C)NC(=O)[C@H](CCCCN)NC(=O)CN)C(=O)N[C@@H](C)C(=O)N[C@@H](CC(=O)O)C(=O)NCC(=O)O (H-GKLDLADG-OH)	> 200	-2
CC(C)C[C@H](NC(=O)[C@H](CC(=O)O)NC(=O)[C@H](CC(C)C)NC(=O)[C@H](CCC(N)=O)NC(=O)[C@H](C)N)C(=O)N[C@@H](C)C(=O)N[C@@H](CC(=O)O)C(=O)NCC(=O)O (H-AQLDLADG-OH)	> 100	5
CC(C)C[C@H](NC(=O)[C@H](CC(=O)O)NC(=O)[C@H](C)NC(=O)[C@H](CCC(N)=O)NC(=O)CN)C(=O)N[C@@H](C)C(=O)N[C@@H](CC(=O)O)C(=O)NCC(=O)O (H-GQADLADG-OH)	> 100	11
CC(C)C[C@H](NC(=O)[C@H](CCC(N)=O)NC(=O)CN)C(=O)N[C@@H](CC(=O)O)C(=O)N[C@@H](CC1CCCCC1)C(=O)N[C@@H](C)C(=O)N[C@@H](CC(=O)O)C(=O)NCC(=O)O (HELM PEPTIDE1{G.Q.L.D.[Cha].A.D.G}$$$$V2.0)	> 100	10
CC(C)C[C@H](NC(=O)[C@H](CC(=O)O)NC(=O)[C@H](CC(C)C)NC(=O)[C@H](CCC(N)=O)NC(=O)CN)C(=O)N[C@@H](C)C(=O)N[C@@H](C)C(=O)NCC(=O)O (H-GQLDLAAG-OH)	> 100	14
CC(C)C[C@H](NC(=O)[C@H](C)NC(=O)CN)C(=O)N[C@@H](CC(=O)O)C(=O)N[C@@H](CC(C)C)C(=O)N[C@@H](C)C(=O)N[C@@H](CC(=O)O)C(=O)NCC(=O)O (H-GALDLADG-OH)	> 100	29
CC(C)C[C@H](NC(=O)[C@H](CC(=O)O)NC(=O)[C@H](CC(C)C)NC(=O)[C@H](CC(N)=O)NC(=O)CN)C(=O)N[C@@H](C)C(=O)N[C@@H](CC(=O)O)C(=O)NCC(=O)O (H-GNLDLADG-OH)	> 100	42
CC(C)C[C@H](NC(=O)[C@H](CC(=O)O)NC(=O)[C@H](CC(C)C)NC(=O)[C@H](CCC(N)=O)NC(=O)CN)C(=O)N[C@@H](C)C(=O)N[C@@H](CC(N)=O)C(=O)NCC(=O)O (H-GQLDLANG-OH)	52	64
CC(C)C[C@H](NC(=O)[C@H](CC(=O)O)NC(=O)[C@H](CC(C)C)NC(=O)[C@@H](N)CCC(N)=O)C(=O)N[C@@H](C)C(=O)N[C@@H](CC(=O)O)C(=O)NCC(=O)O (H-QLDLADG-OH)	> 100	-2
CC(C)C[C@H](NC(=O)[C@H](CC(=O)O)NC(=O)[C@H](CC(C)C)NC(=O)[C@H](CCC(N)=O)NC(=O)CN)C(=O)N[C@@H](C)C(=O)N[C@@H](CC(=O)O)C(=O)N[C@@H](C)C(=O)O (H-GQLDLADA-OH)	> 100	15
CC(C)C[C@H](NC(=O)[C@H](CC(=O)O)NC(=O)[C@H](CC(C)C)NC(=O)[C@H](CCC(N)=O)NC(=O)CN)C(=O)N[C@@H](C)C(=O)N[C@@H](CC(=O)O)C(=O)NCC(=O)O (H-GQLDLADG-OH)	8	81
